This note sets out measurements from patent US4687773A, “(+)-N-N-propylnorapomorphine and selective limbic activity” (priority 1985, dated 1987).

For series [1], the target named is Dopamine Receptors. Type of series: binding, calf. The following applies: ligand [3H]APO (0.5 nM).
Series [2] concerns the target Dopamine Receptors. It counts as binding, calf. The following applies: ligand [3H]ADTN (0.5 nM).
Series [3] has as its system dopamine (DA) receptors in the limbic system and basal ganglia. Put plainly: Total motor activity, electronic activity monitor (EAM). Type of series: in vivo, rat. On the procedure: (§1) Activity: Overall motor activity was measured by use of the self-recording Stoelting electronic activity monitor method described previously by Stewart, Campbell, Sperk, and Baldessarini^9. Total activity is obtained by setting monitor sensitivity so as to detect both locomotion and small movements (such as grooming, sniffing, and chewing) as would be prominent in stereotyped responses that tend to diminish locomotion and increase sniffing, licking, and chewing movements. Locomotor activity is detected selectively by setting monitor sensitivity to detect large, locomotor movements, and to minimize smaller movements already described.
(§2) All data presented in the Tables below are expressed as the mean results from 4-6 rats per condition, ±S.E.M. Stereotypy is expressed in rating units (maximum=3.0) and activity is expressed in arbitrary units of percent change, derived from EAM counts per unit time, relative to activity in control (saline) animals set at zero.
All the posttreatment doses of (+)APO were 3.0 mg/kg, s.c. The data
All posttreatment doses of (+)NPA were 3 mg/kg, s.c. The data are similar

The subject of series [4] is DA in the corpus striatum (basal ganglia). As to the kind of experiment: Head posture (contralateral head deviation) after intrastriatal DA. It counts as in vivo, rat. The settings on record: intrastriatal DA 16 μg; aporphine 3 mg/kg systemic (route not given).
Series [5] concerns dopamine (DA) receptors in the limbic system. Put plainly: Locomotor activity (spontaneous or aroused by (-)APO / (-)NPA), electronic activity monitor. It counts as in vivo, rat. On the procedure: as §1
Rats (mean N=6 per condition) were tested for locomotor activity for 60 min following a single dose of (-)APO (0.3 mg/kg, SC), or its vehicle ("placebo" condition). The S(+) isomers were administered in a range of doses from 0 or 0.1 to 30 mg/kg, SC immediately following injection of (-)APO or its vehicle. Data are presented in FIG. 2 as mean EAM activity counts per hour SEM. In that figure, the dashed line labeled "control" represents the mean activity of rats given vehicle only and no aporphine (SD values are indicated by parallel light lines above and below the control mean).
Test agents (11substituted-N--propylnoraporphine isomers were given at a
dose of 3 mg/kg, ip (in 2 ml/kg) just prior to (-)apomorphine (APO, at 0.
mg/kg, ip, in 1 ml/kg) to rats (N = 6) tested in an electronic activity

The test system is the same in series [6]. The description is as above. Type of series: in vivo, rat. This is another data set of the same source.
The subject of series [7] is DA in the limbic system (nucleus accumbens septi). Put plainly: Arousal (locomotor activity) induced by DA injected into nucleus accumbens septi. Type of series: in vivo, rat. The settings on record: for activity counts (arousal induced by 16 μg DA in accumbens): 30 min, DA control 238 ± 38. The method, then: An experiment shown in Table 9 involves testing the effects of S(+) isomers of apomorphine (APO) and N-propylnorapomorphine (NPA) given systemically (intraperitoneally, ip), as well as S(+) methylenedioxy-N-propylnorapomorphine (MDO-NPA) given ip or orally (po, by orogastric intubation). […]. […] Activity was monitored for 30 min after injection of DA into the brain, which was done at 10 min after systemic dosing with an S(+)aporphine test compound.
Data are mean activity counts ± SEM (N = 6) for rats given DA into the
medial accumbens after pretreatment with an inhibitor of monoamine oxidas
(MA0), and monitored on EAM for 30 min (aporphine given 10 min before DA
systemicallyintraperitoneally [ip] or orally [po].

In series [8] the test system is dopamine (DA) receptors in the basal ganglia (corpus striatum). As to the kind of experiment: Stereotyped licking and gnawing behavior rating in the rat. It counts as in vivo. The text has this: Stereotypy: The mean stereotyped licking and gnawing behavioral rating scheme developed by Tarsy and Baldessarini^8 was used. […]
Stereotypy scores were rated for one hour as described in […]

Series [9] is described as follows: Catalepsy (latency to resume normal posture). It counts as in vivo, rat. The settings on record: s.c., maximum 18.0. The method, then:
Catalepsy: This measure of muscle rigidity is assessed by having animals in abnormal body positions and timing their duration of maintaining these. This is done by placing rats on a wire grid placed at a 45° angle to the benchtop, or by placing their forelimbs on a raised horizontal metal bar, and timing the latency to resume a normal posture by stopwatch.
as §2

Series [10] has as its target T1, rat liver catechol O-methyl-transferase (COMT) (Rattus norvegicus, UniProt P22734).
T1 construct: partially purified rat liver catechol O-methyl-transferase (COMT); from tissue; host or cells: rat liver, ammonium sulfate precipitation and dialysis
T1 sequence (P22734 1-221 isoform P22734-2): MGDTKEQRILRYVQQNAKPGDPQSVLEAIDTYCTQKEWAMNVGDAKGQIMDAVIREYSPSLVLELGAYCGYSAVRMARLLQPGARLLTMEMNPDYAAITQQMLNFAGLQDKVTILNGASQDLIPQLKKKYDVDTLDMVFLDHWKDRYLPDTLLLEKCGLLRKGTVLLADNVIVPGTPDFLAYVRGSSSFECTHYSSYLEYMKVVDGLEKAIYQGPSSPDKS
As to the kind of experiment: Isomeric substrate selectivity for rat liver COMT. It counts as biochemical.

The target of series [11] is T2, Dopamine (DA) sensitive adenylate cyclase (Rattus norvegicus, UniProt P18901).
T2 construct: homogenates of rat corpus striatum; from tissue; host or cells: rat corpus striatum homogenate
As to the kind of experiment: Stimulation of formation of cyclic AMP in rat striatal homogenate. It counts as biochemical. An excerpt:
assayed in homogenates of corpus striatum obtained from rat brain. The
method of assay of the activity of DAsensitive adenylate cyclase by the
rate of formation of cAMP above a basal (no agonist) level is described
under Experimental Section. The data are mean values of cAMP levels in […]

Setting [12] is: Table 4, (+)APO 3.0 mg/kg s.c. after (-)APO 0.3 mg/kg.
The mark [13] stands for this setting: Table 4, (+)APO 3.0 mg/kg s.c. after (-)APO 1.0 mg/kg.
[14] abbreviates: Table 4, (+)APO 3.0 mg/kg s.c. after (-)APO 3.0 mg/kg.
[15] abbreviates: Table 4, (+)APO 3.0 mg/kg s.c., (-)APO 0.
Where [16] appears, read: Table 5, (-)NPA 0.3 mg/kg + saline.
Where [17] appears, read: Table 5, (-)NPA 3.0 mg/kg + saline.
The mark [18] stands for this setting: 2.5 min, read-out: cAMP production, % of control.

Like-named read-outs stand apart in the source and are kept apart here.

T2 sequence (P18901 whole entry): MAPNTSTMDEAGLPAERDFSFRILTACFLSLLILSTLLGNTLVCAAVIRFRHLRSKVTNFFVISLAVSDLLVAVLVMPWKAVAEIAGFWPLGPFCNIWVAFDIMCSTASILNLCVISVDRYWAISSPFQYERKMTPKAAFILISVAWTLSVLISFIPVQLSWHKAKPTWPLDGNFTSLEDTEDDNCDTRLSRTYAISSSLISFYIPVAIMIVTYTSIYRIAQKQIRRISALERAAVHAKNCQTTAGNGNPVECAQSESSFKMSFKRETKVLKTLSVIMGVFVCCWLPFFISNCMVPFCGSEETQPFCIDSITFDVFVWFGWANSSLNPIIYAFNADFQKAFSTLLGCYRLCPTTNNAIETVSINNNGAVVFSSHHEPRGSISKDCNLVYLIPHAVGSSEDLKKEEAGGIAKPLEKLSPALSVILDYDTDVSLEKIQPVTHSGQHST

In the case of `CCCN1CCc2cccc3c2C1Cc1ccc(O)c(O)c1-3` (racemic) [(±)-NPA, (RS)-N-n-Propylnorapomorphine], the figures for the IC50 on Dopamine Receptors [1] and at Dopamine Receptors [2] were 5 nM and 3.5 nM, respectively.

Take `CN1CCc2cccc3c2[C@@H]1Cc1ccc(O)c(O)c1-3` [(+)APO, S(+) isomers of apomorphine (APO)]: the “Total Activity” value is 36.2 ± 0.92 percent change in [3] (setting [12]), 44.6 ± 0.75 percent change in series [3] (setting [13]), 62.0 ± 0.48 percent change in [3] (setting [14]) and -0.62 ± 0.33 percent change in series [3] (setting [15]). The “Contralateral Head Deviation, Percent of Total” value in series [4] is given as 57.2% of Total. Moreover, the “Contralateral Head Deviation, Time” value in series [4] stood at 412 ± 53 s. For the same compound, the Locomotion is on record as 36.2 ± 4.3 percent change in [5] (setting [12]), 42.1 ± 6.3 percent change in series [5] (setting [14]), -0.84 ± 0.22 percent change in series [5] (setting [15]) and 43.0 ± 5.2 percent change in series [6] (setting [13]). For the same compound, the “ID50 to reduce the locomotor activating actions of (-)APO” value in series [5] (s.c., (-)APO 0.3 mg/kg) is 4 mg/kg. Also, in series [5] (spontaneous activity), the “ID50, spontaneous locomotor arousal” value is listed as more than 50 mg/kg. Moreover, the “activity counts (arousal induced by 16 μg DA in accumbens)” value in series [7] (0.3 mg/kg ip) was determined as 246 ± 41 activity counts; in series [7] (1.0 mg/kg ip), 190 ± 37 activity counts; in series [7] (3.0 mg/kg ip) it was 125 ± 19 activity counts. Also, the ED50 in series [7] (Rattus norvegicus, ip, DA 16 μg in accumbens, read-out: ID50 (the source's name)) came to 4 mg/kg. The ID50 in [7] (ip, DA 16 μg in accumbens) is 3.6 mg/kg. The “Stereotypy Score” value is given as 0.89 ± 0.36 rating units in [8] (setting [12]), 1.92 ± 0.21 rating units in [8] (setting [13]), 2.93 ± 0.32 rating units in series [8] (setting [14]) and 0.32 ± 0.62 rating units in [8] (setting [15]).

Take `CCCN1CCc2cccc3c2[C@H]1Cc1ccc(O)c(O)c1-3` [(-)NPA, (R)-N-n-propylnorapomorphine]: the “Total Activity” value in series [3] (Table 3, 0.1 mg/kg, s.c.) was 2.0 ± 1.8 percent change vs. placebo con; in [3] (Table 3, 0.3 mg/kg, s.c.) it was 2.1 ± 3.2 percent change vs. placebo con; in series [3] (Table 3, 3.0 mg/kg, s.c.) it was 231.4 ± 37 percent change vs. placebo con; in [3] (setting [16]) it was 22.1 ± 3.7 percent change; in [3] (setting [17]), 231.4 ± 37 percent change. Moreover, the Locomotion in series [5] (setting [16]) is 48.1 ± 9.2 percent change; in series [6] (setting [17]) it was 10.2 ± 6.3 percent change. Moreover, the IC50 (usually the concentration needed to halve the response being measured) on Dopamine Receptors [1] is 2.5 nM; on Dopamine Receptors [2], 2 nM. Also, the Catalepsy score is recorded as 0.5 ± 0.2 in series [9] (0.1 mg/kg) and 0.8 ± 0.3 in series [9] (3.0 mg/kg). The “Vmax (range of two experiments)” value in series [10] (footnote range) is given as 8.9-11.1 (pmol/assay)/h. Further, in series [10] (mean, substrate of rat liver COMT), the Vmax was 10.0 (pmol/assay)/h. For the same compound, the “Stereotypy Score” value was 2.9 ± 0.1 rating units in [8] (Table 1, (-) isomer 3 mg/kg, s.c., ± saline, maximum 3.0); 1.1 ± 0.2 rating units in [8] (Table 3, 0.1 mg/kg, s.c., maximum 3.0); 2.0 ± 0.3 rating units in series [8] (Table 3, 0.3 mg/kg, s.c., maximum 3.0); 2.9 ± 0.9 rating units in series [8] (Table 3, 3.0 mg/kg, s.c., maximum 3.0); 3.0 ± 0.0 rating units in series [8] (Table 3, 5.0 mg/kg, s.c., maximum 3.0); 2.0 ± 0.2 rating units in series [8] (setting [16]). The “Stereotypy Score” value in series [8] (setting [17]) is 2.8 ± 0.4 rating units. Also, the cAMP production in series [11] (1 μM) is given as 3.71 ± 0.31 picomoles per 2.5 min; in series [11] (5 μM), 4.57 ± 0.13 picomoles per 2.5 min; in series [11] (10 μM), 5.34 ± 0.27 picomoles per 2.5 min; in series [11] (50 μM), 5.71 ± 0.24 picomoles per 2.5 min; in series [11] (100 μM), 5.56 ± 0.24 picomoles per 2.5 min. Besides, the cAMP formation, % of control at 1 µM in series [11] (setting [18]) turned out to be 150%. The cAMP formation, % of control at 5 µM in series [11] (setting [18]) stood at 184%. In series [11] (setting [18]), the cAMP formation, % of control at 10 µM was 215%. The cAMP formation, % of control at 50 µM in series [11] (setting [18]) turned out to be 230%. For the same compound, in series [11] (setting [18]), the cAMP formation, % of control at 100 µM was 224%.
